# Article PMC3292553, “Flavonoid Glycosides Isolated from Unique Legume Plant Extracts as Novel Inhibitors of Xanthine Oxidase” (PLoS ONE, 2012)
# Molecular target: T1, Xanthine oxidase from bovine milk (Bos taurus, UniProt P80457)
# T1 construct: Xanthine oxidase from bovine milk and allopurinol were purchased from Sigma-Aldrich; purchased Sigma-Aldrich (St Louis MO, USA); host or cells: bovine milk (natural source)
# Experiment: Assessment of XO activity (formation of uric acid from xanthine, 295 nm)
# Type: biochemical
# Conditions: pure compounds; for Inhibition type: kinetic analysis; for Ki: kinetic analysis (Lineweaver-Burk, Grafit 6); for IC50: XO inhibition
# Description: XO activity was determined by measuring the formation of uric acid from xanthine within a set time. Changes in the levels of uric acid produced through the presence of the test samples allow the potency of inhibitors to be assessed. Initially the effect of the polyphenolic fractions and compounds on the inhibition of enzymatic activity was assessed at substrate concentration where maximum velocity was obtained. All initial reaction rates were in the linear scale and were measured over the first 4 min of the reaction. Each assay was performed in triplicates and the optical density was measured using a Hitachi U-1500 Spectrophotometer (San Jose, USA). […] The reaction was initiated through the addition of 43 mU unit of XO diluted in H2O. […] Control samples were prepared identically to the test samples without the addition of the specimen.
# The measured absorbance was corrected for the contribution of the tested fractions and the pure polyphenolic compounds.
# Statistical computations were carried out using SPSS 13.0 software. For statistical analysis, one-way ANOVA was applied followed by Dunnett's test for multiple pair-wise comparisons. Differences were considered significant at p<0.05. The steady state kinetic parameters (Km and Vmax) were determined (under standard assays conditions) by analyzing formation of uric acid from xanthine under initial rate conditions using the Lineweaver-Burk linearization of the Micaelis-Menten equation. The Ki values and the apparent kinetic parameters Km and Vmax were analyzed with the statistic package Grafit 6 (Erithacus Software, Ltd., Horley, UK).
# T1 sequence (P80457 whole entry): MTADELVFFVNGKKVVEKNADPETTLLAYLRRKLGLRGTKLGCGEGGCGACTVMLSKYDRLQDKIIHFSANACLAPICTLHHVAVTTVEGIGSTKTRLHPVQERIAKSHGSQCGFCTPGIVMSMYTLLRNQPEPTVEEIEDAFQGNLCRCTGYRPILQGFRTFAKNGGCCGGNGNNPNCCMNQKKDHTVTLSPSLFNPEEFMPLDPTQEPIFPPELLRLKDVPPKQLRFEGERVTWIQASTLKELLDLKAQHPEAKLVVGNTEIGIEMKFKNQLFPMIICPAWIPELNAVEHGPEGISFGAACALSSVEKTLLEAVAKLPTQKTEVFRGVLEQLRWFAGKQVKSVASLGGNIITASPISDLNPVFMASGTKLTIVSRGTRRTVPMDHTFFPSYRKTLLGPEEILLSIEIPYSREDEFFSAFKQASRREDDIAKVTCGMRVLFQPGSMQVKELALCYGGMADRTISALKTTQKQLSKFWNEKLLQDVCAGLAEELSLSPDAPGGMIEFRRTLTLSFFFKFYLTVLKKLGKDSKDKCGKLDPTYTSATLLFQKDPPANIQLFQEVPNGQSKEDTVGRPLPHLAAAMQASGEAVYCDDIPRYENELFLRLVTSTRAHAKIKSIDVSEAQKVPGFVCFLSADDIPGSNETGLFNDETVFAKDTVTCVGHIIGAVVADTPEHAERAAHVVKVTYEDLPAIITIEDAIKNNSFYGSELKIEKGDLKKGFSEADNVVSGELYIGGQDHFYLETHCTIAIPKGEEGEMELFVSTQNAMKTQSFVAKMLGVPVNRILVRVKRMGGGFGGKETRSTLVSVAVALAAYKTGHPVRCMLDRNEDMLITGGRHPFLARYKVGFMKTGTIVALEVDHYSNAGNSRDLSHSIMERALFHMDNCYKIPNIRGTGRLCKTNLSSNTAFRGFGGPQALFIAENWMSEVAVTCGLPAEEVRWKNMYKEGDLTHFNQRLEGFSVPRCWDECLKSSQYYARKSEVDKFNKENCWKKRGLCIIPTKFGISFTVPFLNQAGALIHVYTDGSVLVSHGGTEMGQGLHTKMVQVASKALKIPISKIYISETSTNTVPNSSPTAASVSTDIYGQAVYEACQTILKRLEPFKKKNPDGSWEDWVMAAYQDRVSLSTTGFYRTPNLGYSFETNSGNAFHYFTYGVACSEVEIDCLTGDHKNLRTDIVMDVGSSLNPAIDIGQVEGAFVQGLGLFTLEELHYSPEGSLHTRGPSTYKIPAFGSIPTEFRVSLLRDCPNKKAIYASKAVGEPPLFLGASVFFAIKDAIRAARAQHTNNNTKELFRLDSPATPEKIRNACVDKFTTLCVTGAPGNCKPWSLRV
Structure (SMILES),Inhibition type,Ki [µM],IC50 [µM]
"Oc1ncnc2[nH]ncc12 [Allopurinol, 4-hydroxypyrazolo (3,4-d) pyrimidine, reference compound]",Competitive,,
"CC1OC(Oc2cc(O)c3c(=O)c(OC4OC(CO)C(O)C(O)C4OC4OC(C)C(O)C(O)C4O)c(-c4ccc(O)c(O)c4)oc3c2)C(O)C(O)C1O [Compound 1, Quercetin 3-O-[α-L-rhamnopyranosyl(1→2)-β-D-galactopyranosyl]-7-O-α-L-rhamnopyranoside]",Non competitive,115,
"CC1OC(Oc2cc(O)c3c(=O)c(OC4OC(CO)C(O)C(O)C4OC4OC(C)C(O)C(O)C4O)c(-c4ccc(O)c(O)c4)oc3c2)C(O)C(O)C1O [Compound 2, Quercetin 3-O[α-L-rhamnopyranosyl(1→2)-β-D-glucopyranosyl]-7-O-α-L-rhamnopyranoside]",,186,
"CC1=CC(=O)CC(C)(C)C1(O)C=CC(C)OC1OC(CO)C(O)C(O)C1O [Compound 3, (6S,9R)-Roseoside]",Non competitive,767,
"CC1OC(Oc2cc(O)c3c(=O)c(OC4OC(CO)C(O)C(O)C4OC4OC(C)C(O)C(O)C4O)c(-c4ccc(O)cc4)oc3c2)C(O)C(O)C1O [Compound 4a, Kaempferol 3-O-[α-L-rhamnopyranosyl(1→2)-β-D-glucopyranosyl]-7-O-α-L-rhamnopyranoside]",Non competitive,651,
"CC1OC(Oc2cc(O)c3c(=O)c(OC4OC(CO)C(O)C(O)C4OC4OC(C)C(O)C(O)C4O)c(-c4ccc(O)cc4)oc3c2)C(O)C(O)C1O [Compound 4b, Kaempferol 3-O-[α-L-rhamnopyranosyl(1→2)-β-D-galactopyranosyl]-7-O-α-L-rhamnopyranoside]",,50,
"CC1OC(Oc2cc(O)c3c(=O)c(OC4OC(CO)C(O)C(O)C4O)c(-c4ccc(O)cc4)oc3c2)C(O)C(O)C1O [Compound 5, Kaempferol 3-O-β-D-galactopyranosyl-7-O-α-L-rhamnopyranoside]",Non competitive,345,
"CC1OC(Oc2cc(O)c3c(=O)c(OC4OCC(O)C(O)C4O)c(-c4ccc(O)cc4)oc3c2)C(O)C(O)C1O [Compound 9, Kaempferol 3-O-α-L-arabinopyranosyl-7-O-α-L-rhamnopyranoside]",Non competitive,210,112
"CC1OC(Oc2cc(O)c3c(=O)c(OC4OC(CO)C(O)C(O)C4O)c(-c4ccc(O)cc4)oc3c2)C(O)C(O)C1O [Compound 10, Kaempferol 3-O-β-D-glucopyranosyl-7-O-α-L-rhamnopyranoside]",Non competitive,177,70.6
